How the values were obtained:
[1] = In vivo pharmacokinetic study in rats after oral dosing; design: species or system Sprague Dawley rats; details: 1 mg/kg oral; for Level in plasma after oral dosing: 15 min to 24 h post dose
Experimental: An in vivo pharmacokinetic study in rats was performed to determine if 5-chloro-4-hydroxy-1-methyl-2-oxo-N-phenyl-quinoline-3-carboxamide potassium salt (example compound 1) can be absorbed and detected systemically after oral dosing.
4 male Sprague Dawley rats, approximately 225 g - 250 g at dosing were dosed with 1 mg/kg of Example compound 2 formulated as a 0.1 mg/mL suspension with sodium carboxymethyl cellulose (1%, w/v). Blood samples were taken at 15 min, 30 min, 1 h, 2 h, 4 h, 6 h, 8 hand 24 h post dose
At each blood sampling approximately 250 µL blood was sampled in K3EDTA vials and approximately 100 µL plasma was also prepared.
The plasma samples were prepared by mixing 50 µL plasma with 250 µL of internal standard solution (20 ng/ml of phenacetin in ACN with 1% formic acid), mixed and centrifuged (20 min, 4000 rpm).
Plasma samples were transferred to Waters Ostro 96-well plate and drawn through the plate by applying 6-8 psi positive pressure for 10 min. 100 µL of supernatant was further diluted with 50 µL UP water and sample was submitted to analysis.
The standard and QC samples were prepared into blank rat colon homogenate and blank rat plasma. Standards were spiked into concentrations 0.1 - 10000 ng/ml of the analytes, QC samples into 3, 30, 300 and 3000 ng/ml, and were otherwise treated as samples.

[2] = target: T1, aryl hydrocarbon receptor (AhR) (Mus musculus, UniProt P30561); assay: Activation of AhR in mice after oral administration, qPCR of CYP1A1; assay type: in vivo; details: for Colon CYP1A1 (fold change over untreated), Mean / Liver CYP1A1 (fold change over untreated), Mean: day 14, C57Bl/6 mice
T1 construct: evaluated in a wild-type (WT) mice; from tissue; host or cells: colon and liver of wild-type mice, in vivo after oral dosing
T1 sequence (P30561 10-848): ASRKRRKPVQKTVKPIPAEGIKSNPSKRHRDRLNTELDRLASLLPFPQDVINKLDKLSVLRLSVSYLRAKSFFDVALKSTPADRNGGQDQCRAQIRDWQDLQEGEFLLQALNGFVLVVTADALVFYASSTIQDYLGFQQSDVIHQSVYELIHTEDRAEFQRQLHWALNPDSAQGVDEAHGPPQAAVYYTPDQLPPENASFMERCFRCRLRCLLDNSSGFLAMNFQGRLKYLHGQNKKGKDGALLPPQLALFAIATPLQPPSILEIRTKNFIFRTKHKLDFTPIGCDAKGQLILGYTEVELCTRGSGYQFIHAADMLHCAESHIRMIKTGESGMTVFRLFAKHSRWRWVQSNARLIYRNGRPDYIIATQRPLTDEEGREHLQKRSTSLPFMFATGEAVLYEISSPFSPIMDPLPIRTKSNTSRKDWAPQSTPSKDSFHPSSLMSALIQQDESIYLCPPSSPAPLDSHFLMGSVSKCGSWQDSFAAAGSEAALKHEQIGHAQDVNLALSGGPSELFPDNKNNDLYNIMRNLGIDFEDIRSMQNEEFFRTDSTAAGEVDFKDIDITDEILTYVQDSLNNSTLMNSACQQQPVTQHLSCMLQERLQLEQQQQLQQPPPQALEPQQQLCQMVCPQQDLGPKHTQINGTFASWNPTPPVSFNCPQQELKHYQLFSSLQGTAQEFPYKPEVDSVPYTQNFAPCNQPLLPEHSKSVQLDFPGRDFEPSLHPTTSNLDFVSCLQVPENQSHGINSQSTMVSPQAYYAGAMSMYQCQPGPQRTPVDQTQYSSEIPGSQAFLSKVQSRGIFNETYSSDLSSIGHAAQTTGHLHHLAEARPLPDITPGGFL
Experimental: The potential of the 5-chloro-4-hydroxy-1-methyl-2-oxo-N-phenyl-quinoline-3-carboxamide potassium salt (Example compound 1) to activate the aryl hydrocarbon receptor (AhR) in the colon following oral administration was evaluated in a wild-type (WT) mice.
On study day 0, animals were weighed and evenly distributed into treatment groups based on body weight.
On study day 14, animals were asphyxiated via CO2 inhalation followed by cervical dislocation. The entire colon was removed, collected and prepared for qPCR analysis of CYP1A1 (Normalized to GAPDH & ACTB).
The Example compound 1 was formulated as a 0.1 mg/ml, 0.01 mg/ml or 0.001 mg/ml suspension with sodium carboxymethyl cellulose (1%, w/v).

[3] = tested on: CD4+ adoptive transfer induced inflammatory bowel disease; assay: CD4+ adoptive transfer induced inflammatory bowel disease in mice; assay type: in vivo
Experimental: The efficacy of the 5-chloro-4-hydroxy-1-methyl-2-oxo-N-phenyl-quinoline-3-carboxamide potassium salt in inhibiting inflammation/edema associated with inflammatory bowel disease was evaluated in a CD4+ adoptive transfer induced inflammatory bowel disease in mice.
On study day -1, SCID mice were weighed and evenly distributed into treatment groups based on body weight.
On study day 0, Balb/C mice were terminated, and spleens obtained for CD4^+CD45RB^high cell isolation (Using SCID IBD Cell Separation Protocol). After cells were sorted and obtained, each animal in the treatment groups received an IP injection of CD4^+CD45RB^high cells at a minimum 4x10^5 cells (200 µl/mouse injections). A naive group of mice was followed through the experiment without receiving the injection of cells. The naive group comprised 5 animals.
On study day 21, treatment with 5-chloro-4-hydroxy-1-methyl-2-oxo-N-phenylquinoline-3-carboxamide potassium salt (1 mg/kg, daily day 21 to 49) was initiated. The compound was formulated as a 0.1 mg/mL suspension with sodium carboxymethyl cellulose (1%, w/v). Mice received either the 5-chloro-4-hydroxy-1-methyl-2-oxo-N-phenyl-quinoline-3-carboxamide potassium salt (Example compound 1) or vehicle. Each of those groups comprised 10 animals.
On study day 49, animals were anesthetized with Isoflurane and bled to exsanguination followed by cervical dislocation. The entire colon was removed, measured, and weighed. The colon was analysed for its level of interferon-γ and IL-22. The inflammation in the colons was also scored by visual and histopathological assessments.

[4] = Slurry in water for 48 hours, re-examined by XRPD (disproportionation); assay type: physicochemical; details: slurry in water 20 mg / 400 uL, ambient temperature, potassium salt
Experimental: When a sample of Example compound 1 was stored in a slurry in water at 20 mg / 400uL for 48 hours at ambient temperature, recovered, dried by evaporation and re-examined by XRPD, there was no change in the X-ray diffractogram.

With `Cn1c(=O)c(C(=O)Nc2ccccc2)c([O-])c2c(Cl)cccc21.[K+]` [Example compound 1, 5-chloro-4-hydroxy-1-methyl-2-oxo-N-phenyl-quinoline-3-carboxamide potassium salt] the “Level in plasma after oral dosing” value ([1]; FIG. 7, listed as 5-chloro-4-hydroxy-1-methyl-2-oxo-N-phenyl-quinoline-3-carboxamide potassium sal, potassium salt) was “absorbed through the intestine into the plasma”, the “Level in plasma after oral dosing” value ([1]; FIG. 7, potassium salt) was “detected in the plasma” and the Clearance from plasma ([1]; FIG. 7) was “rapidly cleared”. The “Colon CYP1A1 (fold change over untreated), Mean” value ([2]; 0.01 mg/kg PO QD D0-13, colon) was 1.03 fold change over untreated, the “Liver CYP1A1 (fold change over untreated), Mean” value ([2]; 0.01 mg/kg PO QD D0-13, liver) was 1.08 fold change over untreated and the “Colon CYP1A1 (fold change over untreated), Mean” value ([2]; 0.1 mg/kg PO QD D0-13, colon) was 7.42 fold change over untreated. The “Liver CYP1A1 (fold change over untreated), Mean” value ([2]; 0.1 mg/kg PO QD D0-13, liver) was 2.81 fold change over untreated, the “Colon CYP1A1 (fold change over untreated), Mean” value ([2]; 1.0 mg/kg PO QD D0-13, colon) was 8.34 fold change over untreated and the “Liver CYP1A1 (fold change over untreated), Mean” value ([2]; 1.0 mg/kg PO QD D0-13, liver) was 3.44 fold change over untreated. For the same compound, the “CYP1A1 mRNA expression compared to untreated animals” value ([2]; 1.0 and 0.1 mg/kg oral, WT mice) was “significant increase”, the Body weight change ([3]; 1 mg/kg daily day 21 to 49, SCID mice, vs vehicle, FIG. 4) was “less weight loss” and the “Colon level of inflammatory markers (interferon-γ and IL-22)” value ([3]; 1 mg/kg daily day 21 to 49, day 49, vs vehicle, FIG. 5) was “lower levels of inflammatory markers”. For the same compound, the “Colon inflammation scores (visual and histopathological)” value ([3]; 1 mg/kg daily day 21 to 49, day 49, vs vehicle, FIG. 6) was “fewer signs of inflammation”, the “Inhibition of inflammation/edema associated with inflammatory bowel disease” value ([3]; CD4+ adoptive transfer model in mice, summary statement) was “effective in inhibiting inflammation/edema” and the “Stability in water slurry: change in X-ray diffractogram” value ([4]; listed as 5-chloro-4-hydroxy-1-methyl-2-oxo-N-phenylquinoline-3-carboxamide potassium salt) was “stable when in a slurry”. The “Stability in water slurry: change in X-ray diffractogram” value [4] was “no change”.
